Test: Safety assessment: adverse events
Format: in vivo, Japanese patients
Conditions: for Blood alkaline phosphatase increased, All grades / Blood alkaline phosphatase increased, Grade ¾ / Cancer pain, All grades / Cancer pain, Grade ¾ / Decreased appetite, All grades / Decreased appetite, Grade ¾ / Diarrhea, All grades / Diarrhea, Grade ¾ / Dysgeusia, All grades / Dysgeusia, Grade ¾ / Fatigue, All grades / Fatigue, Grade ¾ / Leukopenia, All grades / Leukopenia, Grade ¾ / Lymphopenia, All grades / Lymphopenia, Grade ¾ / Nausea, All grades / Nausea, Grade ¾ / Neutropenia, All grades / Neutropenia, Grade ¾ / Pyrexia, All grades / Pyrexia, Grade ¾ / Rash, All grades / Rash, Grade ¾ / Stomatitis, All grades / Stomatitis, Grade ¾ / Thrombocytopenia, All grades / Thrombocytopenia, Grade ¾ / Vomiting, All grades / Vomiting, Grade ¾ / AEs Total, All grades / AEs Total, Grade ¾ / Alanine aminotransferase increased, All grades / Alanine aminotransferase increased, Grade ¾: regardless of study drug relationship
Text: Safety assessments consisted of monitoring and recording of all AEs, including laboratory abnormalities and vital signs. DLTs were defined as an AE or a laboratory abnormality assessed as related to the study drug and occurring within the first 28 days of treatment (Cycle 1), as defined in Supplemental Table S1.

Cn1c(=O)n(-c2ccc(C(C)(C)C#N)cc2)c2c3cc(-c4cnc5ccccc5c4)ccc3ncc21 [BEZ235]
6 (100.0) n (%): AEs Total, All grades (qd 1200 mg (n = 6)) | AEs Total, Grade ¾ (qd 1200 mg (n = 6)) | Decreased appetite, All grades (qd 1200 mg (n = 6)) | Diarrhea, All grades (qd 1200 mg (n = 6)) | Stomatitis, All grades (qd 1200 mg (n = 6))
11 (40.7) n (%): Rash, All grades (qd All patients (N = 27))
27 (100.0) n (%): AEs Total, All grades (qd All patients (N = 27))
5 (71.4) n (%): AEs Total, Grade ¾ (qd 1400 mg (n = 7)) | Stomatitis, All grades (qd 1400 mg (n = 7)) | Vomiting, All grades (qd 1400 mg (n = 7))
24 (88.9) n (%): Decreased appetite, All grades (qd All patients (N = 27))
4 (50.0) n (%): Thrombocytopenia, All grades (qd 1000 mg (n = 8)) | Vomiting, All grades (qd 1000 mg (n = 8))
2 (7.4) n (%): Blood alkaline phosphatase increased, Grade ¾ (qd All patients (N = 27)) | Leukopenia, Grade ¾ (qd All patients (N = 27)) | Rash, Grade ¾ (qd All patients (N = 27))
1 (14.3) n (%): Alanine aminotransferase increased, Grade ¾ (qd 1400 mg (n = 7)) | Blood alkaline phosphatase increased, Grade ¾ (qd 1400 mg (n = 7)) | Diarrhea, Grade ¾ (qd 1400 mg (n = 7)) | Leukopenia, Grade ¾ (qd 1400 mg (n = 7)) | Lymphopenia, Grade ¾ (qd 1400 mg (n = 7))
1 (12.5) n (%): Fatigue, Grade ¾ (qd 1000 mg (n = 8)) | Leukopenia, Grade ¾ (qd 1000 mg (n = 8)) | Neutropenia, All grades (qd 1000 mg (n = 8)) | Neutropenia, Grade ¾ (qd 1000 mg (n = 8)) | Rash, Grade ¾ (qd 1000 mg (n = 8))
14.8%: grade 3 or 4 lymphopenia suspected to be study drug-related (qd group, four patients)
25.9%: study drug discontinuation due to AEs (qd group, seven patients)
1 (16.7) n (%): Alanine aminotransferase increased, All grades (qd 1200 mg (n = 6)) | Blood alkaline phosphatase increased, All grades (qd 1200 mg (n = 6)) | Blood alkaline phosphatase increased, Grade ¾ (qd 1200 mg (n = 6)) | Cancer pain, All grades (qd 1200 mg (n = 6)) | Decreased appetite, Grade ¾ (qd 1200 mg (n = 6)) | Leukopenia, All grades (qd 1200 mg (n = 6)) | Lymphopenia, All grades (qd 1200 mg (n = 6)) | Lymphopenia, Grade ¾ (qd 1200 mg (n = 6)) | Rash, All grades (qd 1200 mg (n = 6)) | Rash, Grade ¾ (qd 1200 mg (n = 6)) | Stomatitis, Grade ¾ (qd 1200 mg (n = 6))
7.4%: grade 3 or 4 rash suspected to be study drug-related (qd group, two patients) | grade 3 or 4 thrombocytopenia suspected to be study drug-related (qd group, two patients)
4 (66.7) n (%): Fatigue, All grades (qd 1200 mg (n = 6))
5 (62.5) n (%): Rash, All grades (qd 1000 mg (n = 8))
3 (11.1) n (%): Fatigue, Grade ¾ (qd All patients (N = 27)) | Thrombocytopenia, Grade ¾ (qd All patients (N = 27))
4 (14.8) n (%): Neutropenia, Grade ¾ (qd All patients (N = 27))
6 (22.2) n (%): Alanine aminotransferase increased, All grades (qd All patients (N = 27)) | Blood alkaline phosphatase increased, All grades (qd All patients (N = 27)) | Leukopenia, All grades (qd All patients (N = 27)) | Pyrexia, All grades (qd All patients (N = 27))
66.7%: patients with Grade 3 or 4 AEs (qd dosing, 18 patients)
11.1%: grade 3 or 4 fatigue suspected to be study drug-related (qd group, three patients) | grade 3 or 4 neutropenia suspected to be study drug-related (qd group, three patients)
8 (29.6) n (%): Dysgeusia, All grades (qd All patients (N = 27)) | Neutropenia, All grades (qd All patients (N = 27)) | Thrombocytopenia, All grades (qd All patients (N = 27))
two: patients with study drug-related serious adverse events (SAEs) (qd dosing group)
5 (83.3) n (%): Nausea, All grades (qd 1200 mg (n = 6)) | Vomiting, All grades (qd 1200 mg (n = 6))
0 n (%): Blood alkaline phosphatase increased, Grade ¾ (qd 1000 mg (n = 8)) | Cancer pain, Grade ¾ (qd 1000 mg (n = 8)) | Decreased appetite, Grade ¾ (qd 1000 mg (n = 8)) | Diarrhea, Grade ¾ (qd 1000 mg (n = 8)) | Dysgeusia, Grade ¾ (qd 1000 mg (n = 8)) | Nausea, Grade ¾ (qd 1000 mg (n = 8)) | Pyrexia, Grade ¾ (qd 1000 mg (n = 8)) | Stomatitis, Grade ¾ (qd 1000 mg (n = 8)) | Thrombocytopenia, Grade ¾ (qd 1000 mg (n = 8)) | Vomiting, Grade ¾ (qd 1000 mg (n = 8)) | Alanine aminotransferase increased, Grade ¾ (qd 1200 mg (n = 6)) | Cancer pain, Grade ¾ (qd 1200 mg (n = 6)) | Diarrhea, Grade ¾ (qd 1200 mg (n = 6)) | Dysgeusia, Grade ¾ (qd 1200 mg (n = 6)) | Leukopenia, Grade ¾ (qd 1200 mg (n = 6)) | Nausea, Grade ¾ (qd 1200 mg (n = 6)) | Neutropenia, Grade ¾ (qd 1200 mg (n = 6)) | Pyrexia, Grade ¾ (qd 1200 mg (n = 6)) | Thrombocytopenia, All grades (qd 1200 mg (n = 6)) | Thrombocytopenia, Grade ¾ (qd 1200 mg (n = 6)) | Vomiting, Grade ¾ (qd 1200 mg (n = 6)) | Cancer pain, All grades (qd 1400 mg (n = 7)) | Cancer pain, Grade ¾ (qd 1400 mg (n = 7)) | Decreased appetite, Grade ¾ (qd 1400 mg (n = 7)) | Dysgeusia, Grade ¾ (qd 1400 mg (n = 7)) | Fatigue, Grade ¾ (qd 1400 mg (n = 7)) | Nausea, Grade ¾ (qd 1400 mg (n = 7)) | Pyrexia, All grades (qd 1400 mg (n = 7)) | Pyrexia, Grade ¾ (qd 1400 mg (n = 7)) | Rash, Grade ¾ (qd 1400 mg (n = 7)) | Stomatitis, Grade ¾ (qd 1400 mg (n = 7)) | Vomiting, Grade ¾ (qd 1400 mg (n = 7)) | Dysgeusia, Grade ¾ (qd All patients (N = 27)) | Nausea, Grade ¾ (qd All patients (N = 27)) | Pyrexia, Grade ¾ (qd All patients (N = 27)) | Vomiting, Grade ¾ (qd All patients (N = 27))
3 (42.9) n (%): Alanine aminotransferase increased, All grades (qd 1400 mg (n = 7)) | Neutropenia, Grade ¾ (qd 1400 mg (n = 7)) | Thrombocytopenia, All grades (qd 1400 mg (n = 7))
2 (33.3) n (%): Fatigue, Grade ¾ (qd 1200 mg (n = 6)) | Neutropenia, All grades (qd 1200 mg (n = 6)) | Pyrexia, All grades (qd 1200 mg (n = 6))
17 (63.0) n (%): Fatigue, All grades (qd All patients (N = 27)) | Vomiting, All grades (qd All patients (N = 27))
2 (28.6) n (%): Blood alkaline phosphatase increased, All grades (qd 1400 mg (n = 7)) | Dysgeusia, All grades (qd 1400 mg (n = 7)) | Leukopenia, All grades (qd 1400 mg (n = 7))
6 (85.7) n (%): Decreased appetite, All grades (qd 1400 mg (n = 7)) | Nausea, All grades (qd 1400 mg (n = 7))
4 (57.1) n (%): Fatigue, All grades (qd 1400 mg (n = 7)) | Lymphopenia, All grades (qd 1400 mg (n = 7)) | Neutropenia, All grades (qd 1400 mg (n = 7)) | Rash, All grades (qd 1400 mg (n = 7))
3 (50.0) n (%): Dysgeusia, All grades (qd 1200 mg (n = 6))
2 (25.0) n (%): Blood alkaline phosphatase increased, All grades (qd 1000 mg (n = 8)) | Cancer pain, All grades (qd 1000 mg (n = 8)) | Dysgeusia, All grades (qd 1000 mg (n = 8)) | Leukopenia, All grades (qd 1000 mg (n = 8)) | Lymphopenia, All grades (qd 1000 mg (n = 8)) | Lymphopenia, Grade ¾ (qd 1000 mg (n = 8)) | Pyrexia, All grades (qd 1000 mg (n = 8))
7 (100.0) n (%): AEs Total, All grades (qd 1400 mg (n = 7)) | Diarrhea, All grades (qd 1400 mg (n = 7))
7 (87.5) n (%): Decreased appetite, All grades (qd 1000 mg (n = 8)) | Diarrhea, All grades (qd 1000 mg (n = 8)) | Nausea, All grades (qd 1000 mg (n = 8))
25 (92.6) n (%): Diarrhea, All grades (qd All patients (N = 27))
3 (37.5) n (%): Stomatitis, All grades (qd 1000 mg (n = 8))
10 (37.0) n (%): Lymphopenia, All grades (qd All patients (N = 27))
18 (66.7) n (%): AEs Total, Grade ¾ (qd All patients (N = 27)) | Stomatitis, All grades (qd All patients (N = 27))
1 (3.7) n (%): Alanine aminotransferase increased, Grade ¾ (qd All patients (N = 27)) | Cancer pain, Grade ¾ (qd All patients (N = 27)) | Decreased appetite, Grade ¾ (qd All patients (N = 27)) | Diarrhea, Grade ¾ (qd All patients (N = 27)) | Stomatitis, Grade ¾ (qd All patients (N = 27))
22 (81.5) n (%): Nausea, All grades (qd All patients (N = 27))
6 (75.0) n (%): Fatigue, All grades (qd 1000 mg (n = 8))
7 (25.9) n (%): Cancer pain, All grades (qd All patients (N = 27)) | Lymphopenia, Grade ¾ (qd All patients (N = 27))

— PMC6394493 (Cancer Chemotherapy and Pharmacology, 2018)
